Data: patent US20230159469A1, “NOVEL PHTHALAZINE DERIVATIVE HAVING ECTONUCLOEOTIDE PYROPHOSPHATASE/PHOSPHODIESTE RASE INHIBITORY ACTIVITY, AND USE THEREOF” (TXINNO BIOSCIENCE INC., priority 2020, published 2023)
Structures can show the parent of a compound that is named as a salt.

Molecular target: T1, human recombinant ENPP1 (Homo sapiens, UniProt P22413)
T1 construct: purchased R & D systems
T1 sequence (P22413 1-925): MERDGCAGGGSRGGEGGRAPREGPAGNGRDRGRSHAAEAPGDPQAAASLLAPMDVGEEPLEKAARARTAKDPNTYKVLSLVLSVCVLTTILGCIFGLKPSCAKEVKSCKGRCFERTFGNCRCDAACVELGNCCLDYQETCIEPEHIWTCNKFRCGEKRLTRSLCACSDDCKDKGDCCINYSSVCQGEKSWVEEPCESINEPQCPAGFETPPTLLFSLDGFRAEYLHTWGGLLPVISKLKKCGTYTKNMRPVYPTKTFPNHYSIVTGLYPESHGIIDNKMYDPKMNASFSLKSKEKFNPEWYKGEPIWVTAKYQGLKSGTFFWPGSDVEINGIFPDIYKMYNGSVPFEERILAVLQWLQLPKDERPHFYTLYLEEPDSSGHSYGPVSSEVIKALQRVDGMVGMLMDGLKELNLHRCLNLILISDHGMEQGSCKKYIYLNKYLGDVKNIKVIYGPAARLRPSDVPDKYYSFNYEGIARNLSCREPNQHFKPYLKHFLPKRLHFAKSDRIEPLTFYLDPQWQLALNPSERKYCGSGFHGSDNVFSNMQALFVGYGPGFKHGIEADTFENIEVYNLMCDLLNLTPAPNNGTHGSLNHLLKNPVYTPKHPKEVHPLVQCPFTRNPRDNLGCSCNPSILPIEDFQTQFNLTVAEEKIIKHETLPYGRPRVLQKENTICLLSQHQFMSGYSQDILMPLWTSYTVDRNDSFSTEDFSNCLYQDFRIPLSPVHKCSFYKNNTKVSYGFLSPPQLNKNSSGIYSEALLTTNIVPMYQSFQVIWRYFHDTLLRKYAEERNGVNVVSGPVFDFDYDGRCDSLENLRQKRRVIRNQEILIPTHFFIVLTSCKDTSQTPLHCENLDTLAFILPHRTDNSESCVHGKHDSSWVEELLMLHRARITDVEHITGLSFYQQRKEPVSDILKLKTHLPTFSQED
Experiment: ENPP1 enzyme assay with cGAMP substrate (AMP-Glo luminescence)
Format: biochemical
Conditions: human recombinant ENPP1 3 ng/reaction, cGAMP 5 μM, 37° C. 90 minutes, read-out: Enzymatic activity (ENPP1 IC50)
How it was run: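 Human ENPP1 hydrolysis of 5 μM cGAMP was run for 90 min at 37° C in 50 mM Tris pH 8.5, 250 mM NaCl, 0.5 mM CaCl2, 1 μM ZnCl2, 5% glycerol, 1% DMSO. AMP product was quantified by AMP-Glo luminescence; IC50 came from 3-parameter fits of % residual activity, averaged over at least two runs.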

Row | SMILES | IC50 [µM]
1 | COc1cc2c(Cc3ccc4c(c3)CCN4S(N)(=O)=O)nn(C)c(=O)c2cc1OC [Example 188, 5-((6,7-dimethoxy-3-methyl-4-oxo-3,4-dihydrophthalazin-1-yl)methyl)indoline-1-sulfonamide hydrochloride] | < 1
2 | NS(=O)(=O)Nc1ccc(Cc2n[nH]c(=O)c3ccccc23)c(F)c1 [Example 189, N-(3-fluoro-4-((4-oxo-3,4-dihydrophthalazin-1-yl)methyl)phenyl)sulfamide hydrochloride] | < 1
3 | NS(=O)(=O)Nc1ccc(Cc2n[nH]c(=O)c3ccccc23)cc1C(F)(F)F [Example 192, N-(2-(trifluorobenzylmethyl)-4-((4-oxo-3,4-dihydrophthalazin-1-yl)methyl)phenyl)sulfamide hydrochloride] | < 1
4 | COc1cc2c(Cc3ccc(Br)cc3)n[nH]c(=O)c2cc1OC [Example 194, 4-(4-bromobenzyl)-6,7-dimethoxyphthalazin-1(2H)-one] | > 10
5 | CS(=O)(=O)NCc1ccc(-c2n[nH]c(=O)c3ccccc23)cc1 [Example 195, N-(4-(4-oxo-3,4-dihydrophthalazin-1-yl)benzyl)methanesulfonamide] | > 10
6 | Cc1ccc(S(=O)(=O)NCc2ccc(-c3n[nH]c(=O)c4ccccc34)cc2)cc1 [Example 197, 4-methyl-N-(4-(4-oxo-3,4-dihydrophthalazin-1-yl)benzyl)benzenesulfonamide] | > 10

Second part, the molecule after the results:

Row | IC50 [µM] | SMILES
7 | < 1 | NS(=O)(=O)Nc1ccc(Cc2n[nH]c(=O)c3ccccc23)cc1F [Example 190, N-(2-fluoro-4-((4-oxo-3,4-dihydrophthalazin-1-yl)methyl)phenyl)sulfamide hydrochloride]
8 | < 1 | NS(=O)(=O)Nc1ccc(Cc2n[nH]c(=O)c3ccccc23)c(C(F)(F)F)c1 [Example 191, N-(3-(trifluorobenzylmethyl)-4-((4-oxo-3,4-dihydrophthalazin-1-yl)methyl)phenyl)sulfamide hydrochloride]
9 | > 10 | COc1cc2c(Cc3cccc(Br)c3)n[nH]c(=O)c2cc1OC [Example 193]
10 | > 10 | O=c1[nH]nc(-c2ccc(CNS(=O)(=O)C3CC3)cc2)c2ccccc12 [Example 196, N -(4-(4-oxo-3,4-dihydrophthalazin-1-yl)benzyl)cyclopropanesulfonamide]
11 | > 10 | O=c1[nH]nc(-c2ccc(CNS(=O)(=O)c3cccs3)cc2)c2ccccc12 [Example 198, N-(4-(4-oxo-3,4-dihydrophthalazin-1-yl)benzyl)thiophene-2-sulfonamide]
12 | > 10 | CNS(=O)(=O)Cc1ccc(-c2nn(C)c(=O)c3ccccc23)cc1 [Example 200, N methyl-1-(4-(3-methyl-4-oxo-3,4-dihydrophthalazin-1-yl)phenyl)methanesulfonamide]
13 | > 10 | Cn1nc(-c2ccc(CS(=O)(=O)N3CCOCC3)cc2)c2ccccc2c1=O [Example 201, 2-methyl-4-(4-((morpholinosulfonyl)methyl)phenyl)phthalazin-1 (2H)-one]
14 | 1 to 10 | Cn1nc(-c2ccc(CCS(N)(=O)=O)cc2)c2ccccc2c1=O [Example 202, 2-(4-(3-methyl-4-oxo-3,4-dihydrophthalazin-1-yl)phenyl)ethane-1-sulfonamide]
15 | > 10 | COc1cc2c(-c3ccc(CN)c(C(F)(F)F)c3)n[nH]c(=O)c2cc1OC [Example 203, 4-(4-(aminomethyl)-3-(trifluoromethyl)phenyl-6,7-dimethoxyphthalazin-1(2.8)-one hydrochloride]
